Literature values as cited in US20180206486A1, “Stable Agricultural Compositions” (Ceradis B.V., priority 2015, published 2018).

How the values were obtained:
[1] = test system: downy mildew (Plasmopara viticola); details: in vivo
rodents = details: after oral and dermal administration and inhalatory exposure

For Potassium phosphite, which “effectiveness as fungicide against downy mildew” value [1] is on record?
The value was “effective”.

What about the toxicity in rodents (rodents) of the same substance?
Its toxicity in rodents is “low toxicity”.
